These results are taken from patent US10406230B2, “Exendin-4 analogue pegylated with polyethylene glycol or derivative thereof, preparation method thereof, and pharmaceutical composition for preventing or treating diabetes, containing same as active ingredient” (priority 2011, dated 2019).

The subject of test [1] is Type 2 diabetic C57BL/6 db/db mice. Put plainly: Low blood glucose sustainability in non-fasting type 2 diabetic mice. The settings on record: 25 nmol/kg intraperitoneal. The format is in vivo. The method, then: The following experiment was performed to evaluate low blood glucose sustainability of C40 site specific PEG bound exendin-4 composition according to the present invention in Type 2 diabetic mice.
Type 2 diabetic C57BL/6 db/db mice (male, 4-5 weeks old, Central Lab. Animal Inc.) were used, and animals were exposed to light at 12 hours cycle and were grown after having stabilized two week by allowing free intake of foods and water. The experimental animals were managed following the guideline of National Institute of Health (NIH) and authorized by Institutional Animal Care and Use Committee of Sungkyunkwan University, and the experiment was performed humanely.
C40-PEG5K-Ex4 (linear), C40-PEG20K-Ex4 (linear), C40-PEG20K-Ex4 (branch), C40-PEG23K-Ex4 (trimer) and C40-PEG50K-Ex4 (trimer) prepared from the Example 1 to 5 and Lys^27-PEG20K-Ex4 prepared in Comparative example 1b were intraperitoneally injected with 25 nmol/kg dose to male db/db mice (6-7 weeks old), blood was collected from tail vein of mice following the float time: 0, 0.5, 1, 2, 3, 4, 6, 8, 12, 24, 36, 48, 60, 72, 96 hours and blood glucose concentration was measured with ACCU-CHEK Sensor (Roche Diagnostics Corp., USA). Afterwards, the low blood glucose sustaining time (blood glucose level<8.35 mmol/l (150 mg/dL)) was additionally measured and shown in Table 4 and FIG. 12. In the present experiment, exendin-4 was used as the control group.

In the next test the target is T1, GLP-1 receptor (GLP-1R) (Rattus norvegicus, UniProt P32301).
T1 construct: Islet cells (RIN-m5F, ATCC, Manassas, Va.) expressing vast quantity of GLP-1 receptor (GLP-1R) were inoculated in 12-wells plates; host or cells: RIN-m5F
T1 sequence (P32301 22-463): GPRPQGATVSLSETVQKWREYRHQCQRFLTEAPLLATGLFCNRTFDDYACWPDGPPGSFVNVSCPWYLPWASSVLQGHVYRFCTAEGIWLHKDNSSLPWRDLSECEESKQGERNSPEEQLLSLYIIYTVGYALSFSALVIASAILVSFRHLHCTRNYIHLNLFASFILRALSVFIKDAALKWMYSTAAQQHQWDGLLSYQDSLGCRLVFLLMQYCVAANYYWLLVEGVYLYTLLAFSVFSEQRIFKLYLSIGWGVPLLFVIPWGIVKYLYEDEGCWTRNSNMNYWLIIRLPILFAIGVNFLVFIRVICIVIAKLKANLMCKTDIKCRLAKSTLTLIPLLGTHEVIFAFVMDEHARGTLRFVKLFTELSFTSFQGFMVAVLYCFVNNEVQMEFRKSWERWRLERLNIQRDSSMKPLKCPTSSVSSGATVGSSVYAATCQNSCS
Kind of test: RIN-m5F cell receptor binding affinity (I-125 exendin-4 displacement). How it is done: Thorough washing was done with PBS including […] bovine serum albumin after two hours.

For “1b (Lys^27-PEG20K-Ex4): exendin-4 (SEQ ID NO: 2) PEGylated at Lys27 amine with 20 kDa mPEG-SPA [reference compound]”, the “Blood glucose level (average)” value is 24.13 mmol/L in test [1] (time 0 h); 7.97 mmol/L in test [1] (time 0.5 h); 6.56 mmol/L in test [1] (time 1 h); 5.24 mmol/L in test [1] (time 2 h); 4.22 mmol/L in test [1] (time 3 h); 4.29 mmol/L in test [1] (time 4 h). For the same substance, the “Blood glucose level (average)” value in test [1] (time 6 h) is 4.85 mmol/L; in test [1] (time 8 h), 5.13 mmol/L; in test [1] (time 12 h), 5.40 mmol/L; in test [1] (time 24 h), 12.98 mmol/L; in test [1] (time 36 h), 17.34 mmol/L; in test [1] (time 48 h), 20.45 mmol/L. The “Blood glucose level (average)” value in test [1] (time 60 h) was determined as 23.02 mmol/L.
Usually IC50 stands for the concentration that gives 50% inhibition. The low end stands for greater potency, the high end for weaker potency. With “Example 1: exendin-4-Cys (cysteine at C-terminal #40 site, SEQ ID NO: 1) bound with linear 5 kDa mPEG-MAL”, the IC50 with GLP-1 receptor (GLP-1R) (RIN-m5F cells, competition with 30 pM I-125 exendin-4 (9-39), 2 hours) was determined as 1.04 nM. Further, the “activity (GLP-1 receptor affinity) better than Comparative example 1a (Lys^12-PEG5K-Ex4)” value with GLP-1 receptor (GLP-1R) (ratio of IC50 values) was determined as 6 times. In addition, the “activity (GLP-1 receptor affinity) better than Comparative example 1b (Lys^27-PEG5K-Ex4)” value in the test with GLP-1 receptor (GLP-1R) (ratio of IC50 values) was “twice”. The “activity (GLP-1 receptor affinity) better than Comparative example 2 (Nter-PEG5K-Ex4)” value with GLP-1 receptor (GLP-1R) (ratio of IC50 values) is on record as 120 times. Also, the “Blood glucose level (average)” value came to 23.38 mmol/L in test [1] (time 0 h); 7.62 mmol/L in test [1] (time 0.5 h); 7.36 mmol/L in test [1] (time 1 h); 5.09 mmol/L in test [1] (time 2 h); 4.46 mmol/L in test [1] (time 3 h); 4.93 mmol/L in test [1] (time 4 h). The “Blood glucose level (average)” value was 5.73 mmol/L in test [1] (time 6 h), 9.04 mmol/L in test [1] (time 8 h), 16.2 mmol/L in test [1] (time 12 h) and 21.1 mmol/L in test [1] (time 24 h).
For “Example 2: exendin-4-Cys (SEQ ID NO: 1) bound at C40 with linear 20 kDa mPEG-MAL”, in test [1] (blood glucose level<8.35 mmol/l (150 mg/dL)), the “low blood glucose sustaining time (time required for blood glucose level increasing back to 8.35 mmol/l)” value came to 23.2 h. Besides, the “Blood glucose level (average)” value in test [1] (time 0 h) is 24.28 mmol/L; in test [1] (time 0.5 h), 7.96 mmol/L; in test [1] (time 1 h), 6.13 mmol/L; in test [1] (time 2 h), 5.29 mmol/L; in test [1] (time 3 h), 4.18 mmol/L; in test [1] (time 4 h) it was 4.34 mmol/L. The “Blood glucose level (average)” value in test [1] (time 6 h) turned out to be 4.9 mmol/L; in test [1] (time 8 h) it was 4.57 mmol/L; in test [1] (time 12 h), 5.86 mmol/L; in test [1] (time 24 h) it was 8.54 mmol/L; in test [1] (time 36 h) it was 11.47 mmol/L; in test [1] (time 48 h) it was 15.34 mmol/L. Also, the “Blood glucose level (average)” value in test [1] (time 60 h) came out at 20.45 mmol/L; in test [1] (time 72 h), 23.02 mmol/L.
For the substance “Example 3: exendin-4-Cys (SEQ ID NO: 1) bound at C40 with branch type 20 kDa mPEG-MAL”, the “Blood glucose level (average)” value in test [1] (time 0 h) amounted to 24.44 mmol/L; in test [1] (time 0.5 h), 7.86 mmol/L; in test [1] (time 1 h), 6.89 mmol/L; in test [1] (time 2 h), 5.04 mmol/L; in test [1] (time 3 h), 4.15 mmol/L; in test [1] (time 4 h), 4.66 mmol/L. The “Blood glucose level (average)” value in test [1] (time 6 h) worked out at 4.67 mmol/L; in test [1] (time 8 h), 5.11 mmol/L; in test [1] (time 12 h) it was 7.89 mmol/L; in test [1] (time 24 h), 15.09 mmol/L; in test [1] (time 36 h), 20.14 mmol/L; in test [1] (time 48 h), 24.21 mmol/L. In test [1] (time 60 h), the “Blood glucose level (average)” value came out at 23.76 mmol/L.
